Data on one molecule can be found in ChEMBL document CHEMBL2440081 (Bioorg Med Chem, 2013).

SMILES strings stand for the structures.

This assay addresses Carbonic anhydrase 13 (Homo sapiens, UniProt Q8N1Q1).

Chain of Carbonic anhydrase 13 (Q8N1Q1 whole entry): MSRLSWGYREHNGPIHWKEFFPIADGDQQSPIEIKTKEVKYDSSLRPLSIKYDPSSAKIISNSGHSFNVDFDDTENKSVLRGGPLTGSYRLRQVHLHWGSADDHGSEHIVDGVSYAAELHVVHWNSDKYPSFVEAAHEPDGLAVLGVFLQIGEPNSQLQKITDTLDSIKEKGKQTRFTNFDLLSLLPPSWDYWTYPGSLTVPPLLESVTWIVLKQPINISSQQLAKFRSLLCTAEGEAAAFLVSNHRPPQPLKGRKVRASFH
Description: Inhibition of human carbonic anhydrase13 preincubated for 15 mins by stopped-flow CO2 hydration assay

One may read the Ki as the equilibrium dissociation constant of an inhibitor or competing ligand from its target. Read a high Ki as weaker binding. In turn, `CCN[C@H]1CN(CCCOC)S(=O)(=O)c2sc(S(N)(=O)=O)cc21` [BRINZOLAMIDE] came in with a Ki of 11 nM.
